{
  "source": "patent US20120101134A1",
  "about": "“5-MEMBERED HETEROARYL DERIVATIVES USED AS SPHINGOSINE 1-PHOSPHATE RECEPTOR AGONISTS” (GLAXO GROUP LIMITED, priority 2009, published 2012)",
  "data": [
    {"target": "T1, human Endothelial Differentiation Gene 1 (EDG1) (Homo sapiens, UniProt P21453)", "T1 construct": "TEV protease site; Gal4-VP16 transcription factor; expressed in transfected cells; host or cells: EDG1-bla/U2OS (Tango GPCR-bla U2OS parental cell line)", "T1 sequence (P21453 whole entry, the tested form may be a part)": "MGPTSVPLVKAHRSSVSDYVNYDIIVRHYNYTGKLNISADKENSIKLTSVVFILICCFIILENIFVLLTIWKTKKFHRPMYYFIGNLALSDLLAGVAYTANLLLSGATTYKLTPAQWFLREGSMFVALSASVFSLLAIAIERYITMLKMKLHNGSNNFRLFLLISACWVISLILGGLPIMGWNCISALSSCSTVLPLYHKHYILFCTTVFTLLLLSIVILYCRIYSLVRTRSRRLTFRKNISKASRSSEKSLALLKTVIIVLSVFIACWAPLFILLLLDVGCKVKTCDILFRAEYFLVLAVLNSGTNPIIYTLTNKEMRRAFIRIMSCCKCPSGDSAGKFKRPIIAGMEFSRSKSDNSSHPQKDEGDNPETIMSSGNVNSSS", "experiment": "S1P1 Tango assay - 384 well format", "type": "cell-based", "conditions": "EDG1-bla/U2OS cells, agonist", "protocol": "S1P1 Tango assay—384 Well Format\nRecombinant EDG1-bla/U2OS cells (contain the human Endothelial Differentiation Gene 1 (EDG1) linked to a TEV protease site and a Gal4-VP16 transcription factor stably integrated into the Tango GPCR-bla U2OS parental cell line) were harvested from growth medium and passaged into assay medium (Invitrogen Freestyle Expression Medium). The cells were starved for 24 hours at 37° C., 5% CO2, harvested and resuspended in assay medium at a density of ˜200,000 cells/ml. All test compounds were dissolved in DMSO at a concentration of 10 mM and were prepared in 100% DMSO to provide 10 point dose response curves. Test compounds prepared by Bravo (Velocity11) were added to wells in columns 2-11 and 13-22; DMSO was added to wells in columns 12 and 23 as unstimulated controls and assay medium was added to wells in columns 1 and 24 as cell-free controls. An S1P1 agonist was added to wells in row 2, columns 2-11 as stimulated controls and test compounds were added to wells in row 2, columns 13-22 and rows 3-15, columns 2-11/13-22 (row 1 and 16 were empty and not used). Compounds in solution were added to the assay plate (Greiner 781090) using an Echo (Labcyte) dose-response program (50 nl/well). The unstimulated and cell-free controls were loaded with 50 nl/well pure DMSO to ensure that the DMSO concentration was constant across the plate for all assays.\n50 μl of the cell suspension was added to each well in columns 2-23 of the plate (˜10,000 cells per well). 50 μl of assay medium was added to each well in the cell-free controls (columns 1 and 24). The cells were incubated overnight at 37° C./5% CO2.\n10 μl of 6× substrate mixture (LiveBLAzer™-FRET B/G substrate (CCF4-AM) Cat #K1096 from Invitrogen, Inc.) was added to each well using Bravo and the plates incubated at room temperature for 2 h in the dark. The plate was finally read on EnVision using one excitation channel (409 nm) and two emission channels (460 nm and 530 nm).\nThe blue/green emission ratio (460 nm/530 nm) was calculated for each well, by dividing the background-subtracted Blue emission values by the background-subtracted Green emission values. The dose response curve is based on sigmoidal dose-response model. All ratio data was normalized based upon the maximum emission ratio of positive control and minimum emission ratio of negative control (DMSO) on each plate. The intrinsic activity (IA) of each compound would be the normalized percentage of its maximum response after curve fitting.", "units": {"EC50": "nM"}, "values": [
      {"compound": "CCc1c(CCCC(=O)O)cccc1-c1cnc(-c2ccc(OC(C)C)c(Cl)c2)s1", "note": "[Example 52, 4-[3-(2-{3-chloro-4-[(1-methylethyl)oxy]phenyl}-1,3-thiazol-5-yl)-2-ethylphenyl]butanoic acid]", "EC50": "≤ 10"},
      {"compound": "CCc1c(CCN(C)CC(=O)O)cccc1-c1cnc(-c2ccc(OC(C)C)c(C#N)c2)s1", "note": "[Example 53, N-{2-[3-(2-{3-cyano-4-[(1-methylethyl)oxy]phenyl}-1,3-thiazol-5-yl)-2-ethylphenyl]ethyl}-N-methylglycine]", "EC50": "≤ 10"},
      {"compound": "CCc1c(CN(C)CC(=O)O)cccc1-c1cnc(-c2ccc(OC(C)C)c(Cl)c2)s1", "note": "[Example 54, N-{[3-(2-{3-chloro-4-[(1-methylethyl)oxy]phenyl}-1,3-thiazol-5-yl)-2-ethylphenyl]methyl}-N-methylglycine]", "EC50": "≤ 1000"},
      {"compound": "CCc1c(CN(C)CC(=O)O)cccc1-c1cnc(-c2ccc(OC(C)C)c(C#N)c2)s1", "note": "[Example 55, N-{[3-(2-{3-cyano-4-[(1-methylethyl)oxy]phenyl}-1,3-thiazol-5-yl)-2-ethylphenyl]methyl}-N-methylglycine]", "EC50": "≤ 100"},
      {"compound": "CCc1c(CCN(C)CC(=O)O)cccc1-c1cnc(-c2ccc(OC(C)C)c(Cl)c2)s1", "note": "[Example 56, N-{2-[3-(2-{3-chloro-4-[(1-methylethyl)oxy]phenyl}-1,3-thiazol-5-yl)-2-ethylphenyl]ethyl}-N-methylglycine]", "EC50": "≤ 10"},
      {"compound": "CCc1c(CN(C)CCC(=O)O)cccc1-c1cnc(-c2ccc(OC(C)C)c(C#N)c2)s1", "note": "[Example 57, N-{[3-(2-{3-cyano-4-[(1-methylethyl)oxy]phenyl}-1,3-thiazol-5-yl)-2-ethylphenyl]methyl}-N-methyl-β-alanine]", "EC50": "≤ 100"},
      {"compound": "CCc1c(-c2cnc(-c3ccc(OC(C)C)c(C#N)c3)s2)ccnc1CCCC(=O)O", "note": "[Example 58, 4-[4-(2-{3-cyano-4-[(1-methylethyl)oxy]phenyl}-1,3-thiazol-5-yl)-3-ethyl-2-pyridinyl]butanoic acid]", "EC50": "≤ 1000"},
      {"compound": "CCc1c(CCN(C)CCC(=O)O)cccc1-c1cnc(-c2ccc(OC(C)C)c(C#N)c2)s1", "note": "[Example 59, N-{2-[3-(2-{3-cyano-4-[(1-methylethyl)oxy]phenyl}-1,3-thiazol-5-yl)-2-ethylphenyl]ethyl}-N-methyl-b-alanine]", "EC50": "≤ 1"}
    ]},
    {"target": "T1, human Endothelial Differentiation Gene 1 (EDG1)", "experiment": "S1P1 Tango assay - 96 well format", "type": "cell-based", "conditions": "EDG1-bla/U2OS cells, agonist", "protocol": "S1P1 Tango assay—96 Well Format\nRecombinant EDG1-bla/U2OS cells (contain the human Endothelial Differentiation Gene 1 (EDG1) linked to a TEV protease site and a Gal4-VP16 transcription factor stably integrated into the Tango GPCR-bla U2OS parental cell line) were suspended in assay medium (Invitrogen Freestyle Expression Medium) at a density of 312, 500 cells/ml. Add 100 μl/well of the assay medium to the cell-free control wells (column 12) and 100 μl/well of the cell suspension to the test compound wells (row 2-8, column 1-10), the unstimulated control wells (DMSO) (column 11), and stimulated control wells (SIP) (row 1, column 1-10) in a Corning black-well, clear bottom 96-well plate. Cells were incubated at 37° C., 5% CO2 for 44-48 h.\nAdd 25 μl of 5× stock solution of test compounds in assay medium with 0.5% DMSO to the test compound wells, 25 μl of 5× stock solution of agonist (S1P) in assay medium with 0.5% DMSO to the stimulated compound wells, and 25 μl of 5× stock solution of 0.5% DMSO in assay medium to the unstimulated control and cell-free control wells.\nAfter incubation at 37° C., 5% CO2 for 5 h, 25 μl of 6× substrate mixture (6 μl Solution A (1 mg LiveBLAzer™-FRET B/G substrate (CCF4-AM) in 912 μl DMSO) plus 60 μl Solution B plus 934 μl Solution C) was added to each well and incubate at room temperature for 2 h in dark. The plate was finally read on EnVision for two emission channels (460 nm and 530 nm).\nAll test compounds were dissolved in DMSO at a concentration of 10 mM and were prepared in 100% DMSO using a 1 in 5 dilution step to provide 10 point dose response curves. The dilutions were transferred to the assay plates ensuring that the DMSO concentration was constant across the plate for all assays.\nCalculate the blue/green emission ratio (460 nm/530 nm) for each well, by dividing the background-subtracted Blue emission values by the background-subtracted Green emission values. The dose response curve is based on sigmoidal dose-response model. […]", "units": {"EC50": "nM"}, "values": [
      {"compound": "Cc1c(C[C@@H](C)C(=O)O)cccc1-c1noc(-c2cnc(OC(C)C)c(Cl)c2)n1", "note": "[Example 3, (2R)-3-[3-(5-{5-chloro-6-[(1-methylethyl)oxy]-3-pyridinyl}-1,2,4-oxadiazol-3-yl)-2-methylphenyl]-2-methylpropanoic acid]", "EC50": "> 1000"},
      {"compound": "Cc1c(CCCC(=O)O)cccc1-c1noc(-c2cnc(OC(C)C)c(Cl)c2)n1", "note": "[Example 4, 4-[3-(5-{5-chloro-6-[(1-methylethyl)oxy]-3-pyridinyl}-1,2,4-oxadiazol-3-yl)-2-methylphenyl]butanoic acid]", "EC50": "> 1000"},
      {"compound": "CC(C)Oc1ccc(-c2nc(-c3ccnc(CCCC(=O)O)c3)no2)cc1C#N", "note": "[Example 21, 4-[4-(5-{3-cyano-4-[(1-methylethyl)oxy]phenyl}-1,2,4-oxadiazol-3-yl)-2-pyridinyl]butanoic acid]", "EC50": "> 1000"}
    ]}
  ]
}
